This note sets out measurements from BindingDB's records for doi:10.1016/0028-3908(95)00017-z (Merz, 1995).

“And” between values parts separate entries of the source, which are not always exact repeats. Equal values may be shown once.

The assay addresses Glutamate receptor ionotropic, NMDA 1 (Rattus norvegicus, UniProt P35439).

The term Ki denotes a measure of affinity in units of concentration, obtained from inhibition or displacement. Low readings indicate a stronger hold on the target, high ones a looser hold on the target. Regarding `CN[C@@]1(c2ccccc2Cl)CCCCC1=O` [2-(2-Chloro-phenyl)-2-methylamino-cyclohexanone(Ketamine)], the Ki is 1190 nM and 2510 nM.
Regarding `N[C@@H](Cc1ccc(Cl)cc1)C(=O)O` [CAS_7424-00-2], the Ki is 42.2 nM and 180 nM.
